From publication PMC7070733 (Molecules, 2020)
pIC50: −log10 of the molar value. In brackets after ≈: the same amount, converted by molar mass. Several values for one entry are separate records, joined by “and”; a condition that tells them apart may be missing. Equal values may be shown once. Entries after “also recorded” stand apart in the source; their conditions may differ.

How the values were obtained:
C. perfringens NA = assay type: biochemical; conditions: for IC50 NA-C. perfringens / pIC50: MUNANA substrate; for IC50 NA-C. perfringens: nd = no detection
H1N1 NA = H1N1 NA (Influenza A virus, UniProt Q9IGQ6); assay: biochemical; assay type: biochemical
Sequence of H1N1 NA (Q9IGQ6 whole entry, looked up): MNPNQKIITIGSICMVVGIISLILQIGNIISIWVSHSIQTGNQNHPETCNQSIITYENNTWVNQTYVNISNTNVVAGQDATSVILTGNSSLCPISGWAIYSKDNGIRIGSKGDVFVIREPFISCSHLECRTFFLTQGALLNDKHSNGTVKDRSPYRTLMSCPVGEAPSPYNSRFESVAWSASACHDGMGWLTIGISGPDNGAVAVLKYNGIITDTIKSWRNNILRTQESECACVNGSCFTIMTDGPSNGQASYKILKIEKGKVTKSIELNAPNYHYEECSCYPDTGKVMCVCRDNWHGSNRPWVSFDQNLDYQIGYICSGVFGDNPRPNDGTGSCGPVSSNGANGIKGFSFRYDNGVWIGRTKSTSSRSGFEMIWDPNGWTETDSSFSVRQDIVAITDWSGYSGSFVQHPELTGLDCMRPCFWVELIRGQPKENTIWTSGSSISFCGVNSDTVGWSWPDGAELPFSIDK

[1] = tested on: influenza virus replication; parameters: method as in PMID 16137775; conditions: in vitro; cited from earlier work
[2] = tested on: endonuclease activity of RNA polymerase in influenza A virus; parameters: method as in earlier work; conditions: ref 40 (Kuzuhara et al. 2009); cited from earlier work

Structure (SMILES): CC(=O)N[C@H]1[C@H]([C@H](O)[C@H](O)CO)OC(C(=O)O)=C[C@@H]1O [DANA, 2,3-didehydro-2-deoxy-N-acetylneuraminic acid, reference compound]
- IC50 NA-C. perfringens (C. perfringens NA): 28.79 µg/mL (≈ 98.8 µM)

Structure (SMILES): C[C@H]1C(=O)CC[C@@H]2[C@]1(C)CC[C@H]1[C@@]2(C)CC[C@@]2(C)[C@@H]3CC(C)(C)CC[C@]3(C)CC[C@]12C [GC1, Friedeline]
- activity against C. perfringens NA (in words) (C. perfringens NA): not active
- activity against H1N1 NA (in words) (H1N1 NA): inactive

Structure (SMILES): COC(=O)/C(C)=C/C(O)CC(C)C1(C)CC=C2C3CCC4C(C)(C)C(O)CCC4(C)C3(O)CCC21C (stereo not drawn) [GC2, Methyl (24E)-3a,9,23-trihydroxy-17,14-friedolanostan-14,24-dien-26-oate]
- activity against C. perfringens NA (in words) (C. perfringens NA): less active; also recorded: satisfactory inhibition
- maximum inhibition against C. perfringens-NA (C. perfringens NA): 79%
- pIC50 (C. perfringens NA): 3.91
- IC50 NA-C. perfringens (C. perfringens NA): 81.78 µg/mL and 81.72 µg/mL
- melting point: 130 to 135 °C
- activity against H1N1 NA (in words) (H1N1 NA): did not show any significant activity; also recorded: less active
- pIC50 (H1N1 NA; IC50 NA-H1N1): 2.72

Structure (SMILES): Oc1cc(O)c2c(c1)OC(c1ccc(O)c(O)c1)C(O)C2 (stereo not drawn) [GC4, catechin]
- activity against C. perfringens NA (in words) (C. perfringens NA): moderately active; also recorded: moderate activity
- pIC50 (C. perfringens NA): 4.22
- IC50 NA-C. perfringens (C. perfringens NA): 17.48 µg/mL (≈ 60.2 µM)
- inhibition of influenza virus replication (in words) [1]: good inhibition
- activity against H1N1 NA (in words) (H1N1 NA): moderately active; also recorded: moderate activity
- pIC50 (H1N1 NA; IC50 H1N1 NA): 4.04
- pIC50 (H1N1 NA; IC50 NA-H1N1): 4.04
- inhibition of endonuclease activity of RNA polymerase (in words) [2]: inhibited
